IC50 data for 29 compounds are collected here from ChEMBL document CHEMBL5154883, “Conformational Constrained 4-(1-Sulfonyl-3-indol)yl-2-phenylaminopyrimidine Derivatives as New Fourth-Generation Epidermal Growth Factor Receptor Inhibitors Targeting T790M/C797S Mutations” (J Med Chem, 2022).

Data set [1] deals with Epidermal growth factor receptor (Homo sapiens, UniProt P00533). In words: Inhibition of wild type EGFR (unknown origin) by ELISA.
Data set [2] has as its system BaF3. In words: Antiproliferative activity against mouse BaF3 cells stably expressing EGFR L858R/T790M/C797S mutant assessed as inhibition of cell growth incubated for 72 hrs by CCK-8 assay. The format is functional, cell-based. Particulars: BaF3, 72 h. For orientation: Tetrazolium assays rely on reduction of a dye to a coloured formazan, in cell work by metabolically active cells.

Data set [3] is described as follows: Cytotoxicity against mouse IL-3 dependent BaF3 cells assessed as inhibition of cell growth incubated for 72 hrs by CCK-8 assay. Particulars: BaF3 cells (IL-3 dependent). It counts as toxicity, cell-based.
For data set [4], the target named is Epidermal growth factor receptor (Homo sapiens, UniProt P00533, C797S/L858R/T790M). In words: Inhibition of EGFR L858R/T790M/C797S mutant (unknown origin) by ELISA. On the technique in general: In an ELISA, binding on a coated surface is turned into a signal by an enzyme label.
Chain of Epidermal growth factor receptor (Homo sapiens, UniProt P00533, C797S/L858R/T790M) (P00533 25-1210 T790M/C797S/L858R limits assumed): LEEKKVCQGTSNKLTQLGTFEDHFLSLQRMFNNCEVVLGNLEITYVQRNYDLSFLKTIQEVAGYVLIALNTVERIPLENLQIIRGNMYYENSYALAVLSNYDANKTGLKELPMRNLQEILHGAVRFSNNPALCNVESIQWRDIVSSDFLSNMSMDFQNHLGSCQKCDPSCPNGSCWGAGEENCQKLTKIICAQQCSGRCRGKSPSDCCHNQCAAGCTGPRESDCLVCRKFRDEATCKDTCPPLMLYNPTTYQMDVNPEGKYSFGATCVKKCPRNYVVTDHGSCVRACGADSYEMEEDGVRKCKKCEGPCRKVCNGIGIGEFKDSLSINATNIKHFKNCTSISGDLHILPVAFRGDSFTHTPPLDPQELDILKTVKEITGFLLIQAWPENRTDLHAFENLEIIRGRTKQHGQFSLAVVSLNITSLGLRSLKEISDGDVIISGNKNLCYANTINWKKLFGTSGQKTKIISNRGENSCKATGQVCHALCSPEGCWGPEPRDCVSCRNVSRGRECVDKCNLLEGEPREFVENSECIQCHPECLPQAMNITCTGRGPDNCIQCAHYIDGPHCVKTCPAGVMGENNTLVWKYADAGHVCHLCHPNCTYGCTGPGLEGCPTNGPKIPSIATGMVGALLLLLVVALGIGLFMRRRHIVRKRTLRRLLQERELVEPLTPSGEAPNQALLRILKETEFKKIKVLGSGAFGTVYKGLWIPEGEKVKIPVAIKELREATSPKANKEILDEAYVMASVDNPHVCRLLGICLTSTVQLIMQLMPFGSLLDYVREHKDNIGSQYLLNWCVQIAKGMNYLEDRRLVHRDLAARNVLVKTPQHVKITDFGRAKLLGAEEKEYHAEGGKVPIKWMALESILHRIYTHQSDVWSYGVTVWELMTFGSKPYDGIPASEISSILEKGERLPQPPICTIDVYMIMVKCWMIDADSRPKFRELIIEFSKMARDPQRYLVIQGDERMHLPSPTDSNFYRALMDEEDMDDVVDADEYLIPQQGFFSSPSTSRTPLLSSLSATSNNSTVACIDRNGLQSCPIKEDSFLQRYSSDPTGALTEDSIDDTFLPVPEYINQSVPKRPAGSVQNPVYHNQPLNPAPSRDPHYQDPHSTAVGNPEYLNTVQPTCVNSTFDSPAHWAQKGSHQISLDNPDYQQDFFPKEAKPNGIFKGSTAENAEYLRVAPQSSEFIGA
In data set [5] the target is Epidermal growth factor receptor (Homo sapiens, UniProt P00533, L858R/T790M). Nature of the data set: Inhibition of EGFR L858R/T790M mutant (unknown origin) by ELISA.
Chain of Epidermal growth factor receptor (Homo sapiens, UniProt P00533, L858R/T790M) (P00533 25-1210 T790M/L858R limits assumed): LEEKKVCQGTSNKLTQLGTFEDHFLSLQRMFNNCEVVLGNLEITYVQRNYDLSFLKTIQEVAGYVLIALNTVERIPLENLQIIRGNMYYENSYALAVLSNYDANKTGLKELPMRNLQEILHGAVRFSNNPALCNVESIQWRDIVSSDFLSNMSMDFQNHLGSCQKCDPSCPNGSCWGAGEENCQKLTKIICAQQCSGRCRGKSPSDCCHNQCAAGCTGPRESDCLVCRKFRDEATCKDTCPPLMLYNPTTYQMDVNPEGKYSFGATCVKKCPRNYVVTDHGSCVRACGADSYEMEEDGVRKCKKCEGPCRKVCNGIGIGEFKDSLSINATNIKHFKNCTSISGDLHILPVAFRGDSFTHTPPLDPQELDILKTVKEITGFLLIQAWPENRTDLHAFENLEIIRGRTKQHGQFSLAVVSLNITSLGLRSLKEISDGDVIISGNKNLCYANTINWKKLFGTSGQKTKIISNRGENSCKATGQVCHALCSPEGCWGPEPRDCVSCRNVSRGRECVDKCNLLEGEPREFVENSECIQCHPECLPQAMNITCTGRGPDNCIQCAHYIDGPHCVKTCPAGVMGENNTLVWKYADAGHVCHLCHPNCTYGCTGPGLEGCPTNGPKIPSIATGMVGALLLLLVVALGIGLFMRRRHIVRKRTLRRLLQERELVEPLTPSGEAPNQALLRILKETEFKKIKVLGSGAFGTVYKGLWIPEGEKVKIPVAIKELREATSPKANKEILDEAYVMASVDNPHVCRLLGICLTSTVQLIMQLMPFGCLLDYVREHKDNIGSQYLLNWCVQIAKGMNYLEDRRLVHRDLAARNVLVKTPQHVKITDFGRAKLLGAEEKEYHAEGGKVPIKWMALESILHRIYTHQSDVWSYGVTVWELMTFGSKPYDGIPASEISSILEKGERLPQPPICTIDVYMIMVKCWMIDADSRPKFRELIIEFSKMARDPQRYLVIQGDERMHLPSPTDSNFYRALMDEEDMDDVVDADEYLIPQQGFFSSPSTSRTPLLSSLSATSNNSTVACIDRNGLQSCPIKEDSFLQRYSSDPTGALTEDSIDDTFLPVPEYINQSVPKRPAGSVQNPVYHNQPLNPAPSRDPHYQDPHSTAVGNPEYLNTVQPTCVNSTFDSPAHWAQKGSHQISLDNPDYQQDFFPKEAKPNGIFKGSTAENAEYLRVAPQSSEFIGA
Data set [6] has as its target Epidermal growth factor receptor (Homo sapiens, UniProt P00533, C797S/EX19DEL/T790M). In words: Inhibition of EGFR 19 del/T790M/C797S mutant (unknown origin) by ELISA.
Data set [7] deals with BaF3. Nature of the data set: Antiproliferative activity against mouse BaF3 cells harboring EGFR 19 del/T790M/C797S mutant assessed as reduction in cell viability incubated for 72 hrs by CCK8 assay. It counts as functional, cell-based. Particulars: BaF3, 72 h.
In data set [8] the test system is A-431. In words: Antiproliferative activity against human A-431 cells harboring wild type EGFR assessed as reduction in cell viability incubated for 72 hrs by CCK-8 assay. Particulars: A-431, 72 h. It counts as functional, cell-based.
Data set [9] deals with PC-9. In words: Antiproliferative activity against human osimertinib-resistant PC-9 cells harboring EGFR 19 del/T790M/C797S mutant assessed as reduction in cell viability incubated for 72 hrs by CCK-8 assay. It counts as functional, cell-based. Particulars: PC-9, 72 h.

SMILES strings stand for the structures.

Chain of Epidermal growth factor receptor (Homo sapiens, UniProt P00533) (P00533 whole entry): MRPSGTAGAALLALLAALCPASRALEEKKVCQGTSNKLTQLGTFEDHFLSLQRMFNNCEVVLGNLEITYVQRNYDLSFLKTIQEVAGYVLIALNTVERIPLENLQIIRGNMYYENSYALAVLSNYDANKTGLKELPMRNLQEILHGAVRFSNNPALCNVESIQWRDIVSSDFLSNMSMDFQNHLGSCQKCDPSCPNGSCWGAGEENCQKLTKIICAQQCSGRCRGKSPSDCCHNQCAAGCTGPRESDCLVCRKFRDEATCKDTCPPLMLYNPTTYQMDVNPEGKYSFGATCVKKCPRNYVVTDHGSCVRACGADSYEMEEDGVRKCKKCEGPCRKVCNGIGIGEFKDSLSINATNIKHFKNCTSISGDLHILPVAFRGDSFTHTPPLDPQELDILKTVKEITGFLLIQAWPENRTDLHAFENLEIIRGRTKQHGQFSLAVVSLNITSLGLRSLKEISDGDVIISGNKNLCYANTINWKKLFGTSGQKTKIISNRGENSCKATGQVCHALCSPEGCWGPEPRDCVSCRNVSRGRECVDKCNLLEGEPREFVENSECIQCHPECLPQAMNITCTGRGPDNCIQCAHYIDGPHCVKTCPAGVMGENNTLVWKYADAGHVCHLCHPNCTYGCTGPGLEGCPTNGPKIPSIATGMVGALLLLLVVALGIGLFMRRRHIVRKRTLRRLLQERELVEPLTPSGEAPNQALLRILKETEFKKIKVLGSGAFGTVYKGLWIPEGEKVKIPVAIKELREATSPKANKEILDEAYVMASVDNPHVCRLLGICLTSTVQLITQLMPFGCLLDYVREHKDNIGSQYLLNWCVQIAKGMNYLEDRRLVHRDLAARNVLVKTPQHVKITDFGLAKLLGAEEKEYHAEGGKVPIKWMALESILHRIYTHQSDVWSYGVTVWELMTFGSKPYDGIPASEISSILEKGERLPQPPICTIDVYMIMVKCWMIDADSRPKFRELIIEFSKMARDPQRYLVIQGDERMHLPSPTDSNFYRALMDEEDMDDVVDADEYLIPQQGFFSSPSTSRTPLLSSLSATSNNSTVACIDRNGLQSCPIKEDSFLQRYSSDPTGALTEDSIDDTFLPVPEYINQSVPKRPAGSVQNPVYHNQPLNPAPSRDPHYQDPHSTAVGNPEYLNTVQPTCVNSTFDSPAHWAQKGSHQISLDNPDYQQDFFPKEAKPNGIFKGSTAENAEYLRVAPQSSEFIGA
Chain of Epidermal growth factor receptor (Homo sapiens, UniProt P00533, C797S/EX19DEL/T790M) (P00533 whole entry, looked up, stated change not applied): as the sequence (P00533 whole entry) above

With `CCS(=O)(=O)n1cc2c3ccc(cc31)OCCCCCCOc1cc(c(Cl)cc1N1CCOCC1)Nc1ncc(Cl)c-2n1`, the values for the IC50 in data set [1], in [2] and in data set [4] were greater than 1000 nM, 140 nM and 57.8 nM, respectively. Also, in data set [3], the IC50 at 72 h is greater than 10000 nM.
As for `CCS(=O)(=O)n1cc2c3cc(ccc31)OCCCCCCOc1cc(ccc1N1CCOCC1)Nc1ncc(Cl)c-2n1`, the IC50 in data set [1] and in [4] was greater than 1000 nM each time.
`CCS(=O)(=O)n1cc2c3ccc(cc31)OCCCCCOc1cc(ccc1N1CCOCC1)Nc1ncc(Cl)c-2n1`: the values for the concentration for half-maximal inhibition (IC50) in data set [1], in data set [2] and in data set [4] were greater than 1000 nM, 168 nM and 19 nM, respectively. For the same compound, in data set [3], the 50% inhibitory concentration (IC50) at 72 h was found to be 349 nM.
Turning to `CCS(=O)(=O)n1cc(-c2nc(Nc3ccc(N4CCC(N5CCN(C)CC5)CC4)c(Cl)c3)ncc2Cl)c2ccccc21`, the IC50 in [1] stood at 466 nM; in [5], 2.2 nM; in data set [4], 14.4 nM; in [6], 4.9 nM.
Consider `CCS(=O)(=O)n1cc(-c2nc(Nc3cc(Cl)c(N4CCC(N5CCN(C)CC5)CC4)cc3OC)ncc2Cl)c2ccccc21`, for which the half-maximal inhibitory concentration (IC50) in [1] amounted to 816 nM; in data set [2], 2610 nM; in data set [5] it was 6.6 nM; in [4], 4.3 nM; in data set [6], 25.6 nM. For the same compound, the IC50 at 72 h in [3] came out at 4920 nM.
Consider `CCOc1cc(N2CCC(N3CCN(C)CC3)CC2)c(Cl)cc1Nc1ncc(Cl)c(-c2cn(S(=O)(=O)CC)c3ccccc23)n1`, for which the IC50 stood at 344 nM in data set [1]; 3150 nM in [2]; 7.5 nM in [5]; 4.2 nM in data set [4]; 12 nM in data set [6]. In [3], the IC50 at 72 h turned out to be 7860 nM.
As to `CCS(=O)(=O)n1cc2c3ccc(cc31)OCCCCCCCOc1cc(ccc1N1CCOCC1)Nc1ncc(Cl)c-2n1`, the IC50 in data set [1] is greater than 1000 nM; in data set [2], 180 nM; in [4] it was 89.9 nM. In addition, the 50% inhibitory concentration (IC50) at 72 h in [3] is 773 nM.
`CCS(=O)(=O)n1cc(-c2nc(Nc3ccc(N4CCC(N5CCN(C)CC5)CC4)cc3OC)ncc2Cl)c2ccccc21`: the half-inhibitory concentration (IC50) was greater than 1000 nM in [1], 5.6 nM in data set [5], 34.8 nM in data set [4] and 5.6 nM in [6].
Consider `COc1cc(N2CCC(N3CCN(C)CC3)CC2)ccc1Nc1ncc(Cl)c(-c2cn(S(=O)(=O)C(C)C)c3ccccc23)n1`, for which the IC50 was greater than 1000 nM in data set [1], 18 nM in data set [5], 145 nM in data set [4] and 24.2 nM in [6].
For `CCS(=O)(=O)n1cc(-c2nc(Nc3cc(C)c(N4CCC(N5CCN(C)CC5)CC4)cc3OC)ncc2Cl)c2ccccc21` the same measures were 55.9 nM, 2.7 nM, 1.5 nM and 69.2 nM.
For the compound `CCS(=O)(=O)n1cc2c3ccc(cc31)OCCCCCCCCOc1cc(ccc1N1CCOCC1)Nc1ncc(Cl)c-2n1`, the figures for the half-maximal inhibitory concentration (IC50) in data set [1], in data set [2] and in data set [4] were greater than 1000 nM, 450 nM and 142 nM, respectively. Besides, in [3], the IC50 at 72 h is 2440 nM.
For the compound `CCS(=O)(=O)n1cc(-c2nc(Nc3cc(C(C)C)c(N4CCC(N5CCN(C)CC5)CC4)cc3OC)ncc2Cl)c2ccccc21`, the IC50 is greater than 1000 nM in data set [1], 74.3 nM in data set [5], 478 nM in data set [4] and 116 nM in [6].
`CCS(=O)(=O)n1cc(-c2nc(Nc3ccc(N4CCC(N5CCN(C)CC5)CC4)c(Cl)c3OC)ncc2Cl)c2ccccc21`: the IC50 in [1], in [5], in [4] and in [6] was greater than 1000 nM each time.
Regarding `CCc1cc(Nc2ncc(Cl)c(-c3cn(S(=O)(=O)CC)c4ccccc34)n2)c(OC)cc1N1CCC(N2CCN(C)CC2)CC1`, the half-inhibitory concentration (IC50) in data set [1] came out at 262 nM; in data set [5] it was 6.3 nM; in data set [4] it was 21.8 nM; in data set [6] it was 54.8 nM.
Taken in the same sequence, the figures for `COc1cc(N2CCC(N3CCN(C)CC3)CC2)ccc1Nc1ncc(Cl)c(-c2cn(C(C)=O)c3ccccc23)n1` were greater than 1000 nM, 12.9 nM, 77.8 nM and 8.5 nM.
For `COc1cc(N2CCC(N3CCN(C)CC3)CC2)ccc1Nc1ncc(Cl)c(-c2cn(S(C)(=O)=O)c3ccccc23)n1` the same measures were greater than 1000 nM, 5.5 nM, 41.9 nM and 1.9 nM.
On to `CCS(=O)(=O)n1cc(-c2nc(Nc3cc(Cl)c(N4CCC(N5CCN(C)CC5)CC4)cc3OC(C)C)ncc2Cl)c2ccccc21`, for which the IC50 worked out at 413 nM in data set [1]; 2770 nM in [2]; 2.1 nM in data set [5]; 30.8 nM in data set [4]; 8.1 nM in data set [6]. For the same compound, in data set [3], the IC50 at 72 h is greater than 10000 nM.
Consider `COc1cc(N2CCC(N3CCN(C)CC3)CC2)ccc1Nc1ncc(Cl)c(Nc2ccccc2P(C)(C)=O)n1` [BRIGATINIB], for which the half-inhibitory concentration (IC50) was determined as 610 nM in data set [2], 492 nM in data set [7], 1360 nM in [8] and 1450 nM in [9]. Besides, the IC50 at 72 h in [3] was 1910 nM.
For the compound `CCS(=O)(=O)n1cc2c3ccc(cc31)OCCCCCCOc1cc(ccc1N1CCOCC1)Nc1ncc(Cl)c-2n1`, the IC50 in [1] was determined as 236 nM; in data set [2], 16 nM; in [4], 6.2 nM. Besides, in data set [3], the half-inhibitory concentration (IC50) at 72 h turned out to be 293 nM.
As for `CCS(=O)(=O)n1cc(-c2nc(Nc3cc(Cl)c(N4CCC(N5CCN(C)CC5)CC4)cc3C)ncc2Cl)c2ccccc21`, the IC50 came out at 547 nM in [1]; 410 nM in [2]; 16.3 nM in [5]; 1.6 nM in data set [4]; 4.7 nM in data set [6]. Besides, in data set [3], the IC50 at 72 h was found to be 1320 nM.
Take `CCS(=O)(=O)n1cc2c3cc(ccc31)OCCCCCOc1cc(ccc1N1CCOCC1)Nc1ncc(Cl)c-2n1`: the half-maximal inhibitory concentration (IC50) in data set [1] and in data set [4] was greater than 1000 nM throughout.
For the compound `CCS(=O)(=O)n1cc2c3ccc(cc31)OCCCCCCOc1cc(c(F)cc1N1CCOCC1)Nc1ncc(Cl)c-2n1`, the half-maximal inhibitory concentration (IC50) was determined as 885 nM in [1], 66 nM in [2] and 28 nM in data set [4]. For the same compound, the IC50 at 72 h in [3] came out at 2560 nM.
For `CCS(=O)(=O)n1cc2c3ccc(cc31)OCCCCOc1cc(ccc1N1CCOCC1)Nc1ncc(Cl)c-2n1`, the 50% inhibitory concentration (IC50) in data set [1] and in data set [4] was greater than 1000 nM each time.
In the case of `CCS(=O)(=O)n1cc2c3ccc(cc31)OCCCCCCOc1cc(c(C3CC3)cc1N1CCOCC1)Nc1ncc(Cl)c-2n1`, the IC50 in [1] is greater than 1000 nM; in data set [2], 263 nM; in data set [4], 56.4 nM. Also, the IC50 at 72 h in data set [3] was greater than 10000 nM.
For `CCS(=O)(=O)n1cc2c3ccc(cc31)OCCCCCCOc1cc(c(C3CCCC3)cc1N1CCOCC1)Nc1ncc(Cl)c-2n1`, the IC50 was greater than 1000 nM in data set [1] and 165 nM in data set [4].
Consider `C=CC(=O)Nc1cc(Nc2nccc(-c3cn(C)c4ccccc34)n2)c(OC)cc1N(C)CCN(C)C` [OSIMERTINIB], for which the half-maximal inhibitory concentration (IC50) in data set [2] came out at 4270 nM; in data set [7] it was 6070 nM; in data set [8], […]; in data set [9] it was 5430 nM. Moreover, in [3], the IC50 at 72 h came out at 3520 nM.
As to `CCc1cc(N2CCOCC2)c2cc1Nc1ncc(Cl)c(n1)-c1cn(S(=O)(=O)CC)c3cc(ccc13)OCCCCCCO2`, the IC50 in data set [1] is greater than 1000 nM; in data set [2], 142 nM; in data set [4] it was 32.1 nM. Further, the half-inhibitory concentration (IC50) at 72 h in data set [3] worked out at 4640 nM.
Take `COc1cc(N2CCC(N3CCN(C)CC3)CC2)ccc1Nc1ncc(Cl)c(-c2cn(S(=O)(=O)C3CC3)c3ccccc23)n1`: the IC50 in [1] was greater than 1000 nM; in data set [5] it was 32.6 nM; in [4], 222 nM; in data set [6], 33.3 nM.
For `COc1cc(N2CCC(N3CCN(C)CC3)CC2)ccc1Nc1ncc(Cl)c(-c2c[nH]c3ccccc23)n1` the same measures were greater than 1000 nM, 15.6 nM, 124 nM and 22.6 nM.

The IC50 is the concentration needed to halve the response being measured.
